# Laboratory results from patent publication US20220125877A1, “METHOD FOR TREATING COLORECTAL CANCER” (SUN YAT-SEN UNIVERSITY, priority 2019, published 2022).
# Legend:
# [1] = tested on: KRAS (G13D) mutation SW48 cell line; assay: Azacitidine treatment: MATE1 expression and anti-proliferation effect of metformin; assay type: cell-based, human; settings: FIGS. 16E-F
# [2] = tested on: LoVo cells; assay: as above; assay type: cell-based, human; settings: FIGS. 16E-F
compound,measurement,setting,value
Nc1ncn([C@@H]2O[C@H](CO)[C@@H](O)[C@H]2O)c(=O)n1 [azacitidine],expression of MATE1,[1],up-regulate the expression of MATE1
same,effect on the anti-tumor proliferation effect of metformin,[1]; with metformin,inhibiting the anti-tumor proliferation effect of metformin
same,expression of MATE1,[2],up-regulate the expression of MATE1
same,effect on the anti-tumor proliferation effect of metformin,[2]; with metformin,inhibiting the anti-tumor proliferation effect of metformin
